# Data reported in patent US5508269A, “Aminoglycoside formulation for aerosolization” (priority 1994, dated 1996).
# Values joined by “and” are separate entries in the source; they are usually repeats but may differ in a detail not shown here. Identical values can stand only once. Like-named read-outs stand apart in the source and are kept apart here.
# Key:
# [1] = cited from earlier work; for health of CF patients (in words): aerosol administration, carbenicillin and gentamicin, twenty CF patients, Lancet 1981
# [2] = cited from earlier work
# Pseudomonas aeruginosa [3] = conditions: Pedia Pulmonol. 6:91-8 (1989); cited from earlier work
# [4] = Clinical Trial II, sputum tobramycin levels with three nebulizers; type: in vivo, patients with cystic fibrosis; conditions: for sputum tobramycin level, grand mean: 20 patients
# Protocol: This was an open label, multicenter, randomized, cross-over three arm study. Each arm was different nebulizer delivery system. Two arms deliver the same tobramycin formulation.
# 2. […] The number of inhalations required as recorded.
# 3. […] The number of inhalations required was recorded.
# […] Each patient received, in random order, one administration from each nebulizer delivery system. Each aerosol administration was separated by a minimum of 48 hr. […] Airway irritation and acute bronchospasm were assessed by measuring spirometry immediately prior to and 30 min post-completion of aerosol administration. A decrease in FEV1>15% in the 30 min spirometry test was considered evidence of bronchospasm.
# Immediately after completing the aerosol therapy, the subject rinsed with 30 ml of normal saline through the mount, gargled for 5-10 seconds and expectorated the rinse. This was repeated for a total of three rinses. Sputum specimens were collected at 10 minutes after rinsing oral cavity and 2 hours after completion of the aerosol drug administration. […] Spirometry was obtained 30 minutes following completion of the aerosol drug administration. Following the last aerosol treatment of the study, patients received a brief physical exam after post-spirometry has been measured.
# [5] = type: in vivo, CF patients; conditions: for ± % change FEV1: 30 min after aerosol, 300 mg in 5 ml 1/4 NS, single subjects 001-005 in order
# Protocol: The doses were separated by at least 2 days and not more than 5 days. Peak serum and sputum concentrations were assessed and results are seen in Tables 5 and 6.
# Sixty patients were enrolled. Each patient received, in random order, one administration from each nebulizer delivery system. Each aerosol administration was separated by a minimum of 48 hr. […] Airway irritation and acute bronchospasm were assessed by measuring spirometry immediately prior to and 30 min post-completion of aerosol administration. A decrease in FEV1>15% in the 30 min spirometry test was considered evidence of bronchospasm.
# Pseudomonas aeruginosa [6] = test: MIC of tobramycin for P. aeruginosa isolates from sputum of CF patients; type: cell-based; conditions: for # of Patients (isolate with maximum density) / Cumulative Frequency (isolate with maximum density): most common isolate; for Cumulative Frequency (isolate with maximum MIC): most resistant isolate
# Protocol: This study was a one-year review of all microbiologic records at Children's Hospital in Seattle. All positive Pseudomonas aeruginosa culture data were collated that occurred in patients with Cystic Fibrosis. If multiple cultures from a single individual had been obtained, the first culture was taken as representative.
# MIC90 is the concentration of the drug which inhibits 90% of Pseudomonas aeruginosa isolates. Sputum samples from CF patients were cultured to produce individual colony forming units (CFUs). The MIC was then determined for individual CFUs. CFUs were considered different isolates if their MICs were different.
# [7] = Accelerated stability study at 40° C; type: physicochemical; conditions: pH greater than 7.0
# Description: The higher temperature was chosen to accelerate any degradation process. […] Color was examined by KS scale.
# [8] = Preliminary pharmacokinetics of tobramycin in sputum after aerosol; type: in vivo, patients with CF; conditions: 20 mg/ml in 30 ml half normal saline; for Cmax: Ultraneb 99, 200 inhalations, twenty patients
# Protocol: These levels ranged from 310.4 μg/gm to 5,941 μg/gm, with median level at 1,606 μg/gm). The sputum levels declined rapidly after 30 minutes, reaching a minimum at four hours.
# [9] = cited from earlier work; remark: listed apart in the source
# clinical = type: in vivo, CF patients; conditions: for Sputum Tobramycin Concentrations / Serum Tobramycin: Baseline; for Sputum Tobramycin Concentrations: per subject or mean line; for Serum Tobramycin / concentration at 1 h / concentration at 2 h: single subjects 001-005 in order; for concentration at 10 min / concentration at 1 h / concentration at 2 h: human, inhaled or intranasal, 300 mg; for concentration at 1 h: 1 hour after aerosol; for concentration at 2 h: 2 hours after aerosol
# Description: The doses were separated by at least 2 days and not more than 5 days.
# Pseudomonas aeruginosa [10] = test: Previously studied 80 mg doses of tobramycin; type: in vivo, patients; conditions: initially
# Description: If any degree of drug resistance developed, only a small percentage of patients would be effectively treated.
# P. aeruginosa = conditions: cited from earlier work
# [11] = Sidestream, 300 mg in 5 ml 1/4 NS
# [12] = serum, Serum Tobramycin, Pari LC, 300 mg in 5 ml 1/4 NS
compound,measurement,setting,value
CC1(C)S[C@@H]2[C@H](NC(=O)C(C(=O)O)c3ccccc3)C(=O)N2[C@H]1C(=O)O (stereo partly shown) [carbenicillin],health of CF patients (in words),[1],can improve the health of CF patients
NC[C@H]1O[C@H](O[C@H]2[C@H](O)[C@@H](O[C@H]3O[C@H](CO)[C@@H](O)[C@H](N)[C@H]3O)[C@H](N)C[C@@H]2N)[C@H](N)C[C@@H]1O [tobramycin],solubility,[2],160 mg/mL
same,efficacy of 80 mg doses (in words),Pseudomonas aeruginosa [3],reported effective
same,treatment of exacerbations in CF (in words),"[1]; parenteral, short period of time",successfully treat exacerbations which occur in patients with CF
same,"sputum tobramycin level, grand mean","[4]; Pari LC, 0, 300 mg in 5 ml 0.225 NS",0 µg
same,"sputum tobramycin level, grand mean","[4]; Pari LC, 10 min, 300 mg in 5 ml 0.225 NS",639.1 µg
same,"sputum tobramycin level, grand mean","[4]; Pari LC, 1 hr, 300 mg in 5 ml 0.225 NS",117.0 µg
same,"sputum tobramycin level, grand mean","[4]; Pari LC, 2 hr, 300 mg in 5 ml 0.225 NS",77.6 µg
same,"sputum tobramycin level, grand mean","[4]; Sidestream, 0 hr, 300 mg in 5 ml 0.225 NS",0 µg
same,"sputum tobramycin level, grand mean","[4]; Sidestream, 10 min, 300 mg in 5 ml 0.225 NS",465.3 µg
same,"sputum tobramycin level, grand mean","[4]; Sidestream, 1 hr, 300 mg in 5 ml 0.225 NS",75.7 µg
same,"sputum tobramycin level, grand mean","[4]; Sidestream, 2 hr, 300 mg in 5 ml 0.225 NS",88.8 µg
same,"sputum tobramycin level, grand mean","[4]; Ultra Neb, 0 hr, 600 mg in 30 ml 0.45% NS",0 µg
same,"sputum tobramycin level, grand mean","[4]; Ultra Neb, 10 min, 600 mg in 30 ml 0.45% NS",1335.7 µg
same,"sputum tobramycin level, grand mean","[4]; Ultra Neb, 1 hr, 600 mg in 30 ml 0.45% NS",360.0 µg
same,"sputum tobramycin level, grand mean","[4]; Ultra Neb, 2 hr, 600 mg in 30 ml 0.45% NS",158.8 µg
same,concentrations delivered to the endobronchial space (in words),[4]; formulation used with a jet nebulizer,in the efficacious range
same,endobronchial concentration with half dosage (in words),"[4]; human, in vivo",sufficient to achieve therapeutically effective concentration of tobramycin in the endobronchial space
same,safety of dosage (in words),[5]; 300 mg in 5 ml of 60 mg/ml in 1/4 NS,extremely safe
same,± % change FEV1,[5]; Pari LC,-1.2% and 1.2% and -0.6% and -2% and -5%
same,± % change FEV1,[5]; Sidestream,-2.2% and 0.0% and -7.6% and -1%
same,share of isolates whose MIC is exceeded approximately ten-fold by a sputum level of 128 μg/gm,Pseudomonas aeruginosa [6]; 128 μg/gm sputum level approximately ten-fold greater than MIC,90%
same,share of isolates whose MIC is reached by a sputum level of 128 μg/gm,Pseudomonas aeruginosa [6]; 128 μg/gm sputum level greater than or equal to MIC,98%
same,# of Patients (isolate with maximum density),"Pseudomonas aeruginosa [6]; MIC 1 μg/ml, n=58",9
same,Cumulative Frequency (isolate with maximum density),"Pseudomonas aeruginosa [6]; MIC 1 μg/ml, n=58",78%
same,Cumulative Frequency (isolate with maximum MIC),"Pseudomonas aeruginosa [6]; MIC 1 μg/ml, n=58",67%
same,# of Patients (isolate with maximum density),"Pseudomonas aeruginosa [6]; MIC 2 μg/ml, n=58",3
same,Cumulative Frequency (isolate with maximum density),"Pseudomonas aeruginosa [6]; MIC 2 μg/ml, n=58",83%
same,Cumulative Frequency (isolate with maximum MIC),"Pseudomonas aeruginosa [6]; MIC 2 μg/ml, n=58",75%
same,# of Patients (isolate with maximum density),"Pseudomonas aeruginosa [6]; MIC 4 μg/ml, n=58",2
same,Cumulative Frequency (isolate with maximum density),"Pseudomonas aeruginosa [6]; MIC 4 μg/ml, n=58",86%
same,Cumulative Frequency (isolate with maximum MIC),"Pseudomonas aeruginosa [6]; MIC 4 μg/ml, n=58",83%
same,# of Patients (isolate with maximum density),"Pseudomonas aeruginosa [6]; MIC 8 μg/ml, n=58",2
same,Cumulative Frequency (isolate with maximum density),"Pseudomonas aeruginosa [6]; MIC 8 μg/ml, n=58",90%
same,Cumulative Frequency (isolate with maximum MIC),"Pseudomonas aeruginosa [6]; MIC 8 μg/ml, n=58",86%
same,# of Patients (isolate with maximum density),"Pseudomonas aeruginosa [6]; MIC 16 μg/ml, n=58",2
same,Cumulative Frequency (isolate with maximum density),"Pseudomonas aeruginosa [6]; MIC 16 μg/ml, n=58",93%
same,Cumulative Frequency (isolate with maximum MIC),"Pseudomonas aeruginosa [6]; MIC 16 μg/ml, n=58",90%
same,# of Patients (isolate with maximum density),"Pseudomonas aeruginosa [6]; MIC 32 μg/ml, n=58",1
same,Cumulative Frequency (isolate with maximum density),"Pseudomonas aeruginosa [6]; MIC 32 μg/ml, n=58",95%
same,Cumulative Frequency (isolate with maximum MIC),"Pseudomonas aeruginosa [6]; MIC 32 μg/ml, n=58",93%
same,# of Patients (isolate with maximum density),"Pseudomonas aeruginosa [6]; MIC 64 μg/ml, n=58",1
same,Cumulative Frequency (isolate with maximum density),"Pseudomonas aeruginosa [6]; MIC 64 μg/ml, n=58",97%
same,Cumulative Frequency (isolate with maximum MIC),"Pseudomonas aeruginosa [6]; MIC 64 μg/ml, n=58",95%
same,# of Patients (isolate with maximum density),"Pseudomonas aeruginosa [6]; MIC 128 μg/ml, n=58",2
same,Cumulative Frequency (isolate with maximum density),"Pseudomonas aeruginosa [6]; MIC 128 μg/ml, n=58",98%
same,Cumulative Frequency (isolate with maximum MIC),"Pseudomonas aeruginosa [6]; MIC 128 μg/ml, n=58",98%
same,# of Patients (isolate with maximum density),"Pseudomonas aeruginosa [6]; MIC 256 μg/ml, n=58",1
same,Cumulative Frequency (isolate with maximum density),"Pseudomonas aeruginosa [6]; MIC 256 μg/ml, n=58",100%
same,Cumulative Frequency (isolate with maximum MIC),"Pseudomonas aeruginosa [6]; MIC 256 μg/ml, n=58",100%
same,# of Patients (isolate with maximum density),"Pseudomonas aeruginosa [6]; MIC .25 μg/ml, n=58",26
same,Cumulative Frequency (isolate with maximum density),"Pseudomonas aeruginosa [6]; MIC .25 μg/ml, n=58",45%
same,Cumulative Frequency (isolate with maximum MIC),"Pseudomonas aeruginosa [6]; MIC .25 μg/ml, n=58",36%
same,# of Patients (isolate with maximum density),"Pseudomonas aeruginosa [6]; MIC .5 μg/ml, n=58",10
same,Cumulative Frequency (isolate with maximum density),"Pseudomonas aeruginosa [6]; MIC .5 μg/ml, n=58",63%
same,Cumulative Frequency (isolate with maximum MIC),"Pseudomonas aeruginosa [6]; MIC .5 μg/ml, n=58",53%
same,MIC,Pseudomonas aeruginosa [6]; Pseudomonas aeruginosa,128 µg/mL
same,inhibition at 128 µg/mL,"Pseudomonas aeruginosa [6]; Pseudomonas aeruginosa, read-out: inhibition of most resistant and most common isolates",98%
same,MIC,"Pseudomonas aeruginosa [6]; Table 3: most tobramycin-resistant isolate of each patient, n=58, number of patients on same line",.25 µg/mL and .5 µg/mL and 1 µg/mL and 2 µg/mL and 4 µg/mL and 8 µg/mL and 16 µg/mL and 32 µg/mL and 64 µg/mL and 256 µg/mL
same,MIC,"Pseudomonas aeruginosa [6]; Table 4: most common isolate (maximum density) of each patient, n=58, number of patients on same line",.25 µg/mL and .5 µg/mL and 1 µg/mL and 2 µg/mL and 4 µg/mL and 8 µg/mL and 16 µg/mL and 32 µg/mL and 64 µg/mL and 128 µg/mL and 256 µg/mL
same,degradation of tobramycin (in words),[7],degradation of tobramycin occurs
same,time of minimum sputum level,[8]; Ultraneb 99,four
same,Cmax,"[8]; human, sputum, inhaled or intranasal, read-out: peak sputum level, median",1.61e+06 ng/g
same,Cmax,"[8]; human, sputum, inhaled or intranasal, read-out: peak sputum levels, range",310000 to 5.94e+06 ng/g
same,Tmax,"[8]; human, sputum, inhaled or intranasal, Ultraneb 99, read-out: time of peak sputum levels after therapy",10 to 30 min
same,binding by sputum,[9],up to 90%
same,Sputum Tobramycin Concentrations,"clinical; Pari LC, 300 mg in 5 ml 1/4 NS",bql (< 20 μg/gm)
same,Serum Tobramycin,"clinical; Pari LC, 300 mg in 5 ml 1/4 NS",not detected
same,achievement of target sputum concentration (in words),"clinical; Sidestream and Pari LC, target 128-1000 μg/g, 300 mg in 5 ml 1/4 NS",able to achieve a target concentrations of tobramycin in sputum
same,Sputum Tobramycin Concentrations,clinical; [11],bql (< 20 μg/gm)
same,Serum Tobramycin,clinical; [11],not detected
same,concentration at 10 min,"clinical; in vivo, Sidestream, 10 min, 5 subjects",527000 ± 586000 ng/g
same,concentration at 1 h,clinical; [12],500 ng/mL
same,concentration at 2 h,clinical; [12],400 ng/mL
same,concentration at 1 h,"clinical; serum, Serum Tobramycin, Sidestream, 300 mg in 5 ml 1/4 NS",200 ng/mL
same,concentration at 10 min,"clinical; sputum, 300 mg in 5 ml of 60 mg/ml in 1/4 NS, read-out: sputum concentration achieved (target concentration)",> 128000 ng/g
same,concentration at 10 min,"clinical; sputum, Sputum Tobramycin Concentrations, Mean/Std Dev, Pari LC, 10 min, 5 subjects",811000 ± 677000 ng/g
same,concentration at 2 h,"clinical; sputum, Sputum Tobramycin Concentrations, Sidestream, 300 mg in 5 ml 1/4 NS",57500 ng/g
same,share of patients in whom dose would be predicted to be efficacious,Pseudomonas aeruginosa [10],sixty to seventy
same,"reduction in the density of P. aeruginosa in sputum, factor","P. aeruginosa; aerosolized, all three 28-day periods",100
same,improvement with aerosolized treatment (in words),P. aeruginosa; entire three-period study,significant improvement
gentamicin,health of CF patients (in words),[1],can improve the health of CF patients
